In ChEMBL document CHEMBL1152780, “Kinase domain mutations in cancer: implications for small molecule drug design strategies” (J Med Chem, 2009):

Key:
[1] = Cytotoxicity against mouse BA/F3 cells expressing EGFR L858R mutant; type: functional, cell-based; details: BaF3
[2] = Cytotoxicity against mouse BA/F3 cells expressing EGFR L858R/T790M mutant; type: functional, cell-based; details: BaF3

CCOc1cc2ncc(C#N)c(Nc3ccc(OCc4ccccn4)c(Cl)c3)c2cc1NC(=O)/C=C/CN(C)C [NERATINIB]
IC50 [1]: 3.5 nM
IC50 [2]: 180 nM

C#Cc1cccc(Nc2ncnc3cc(OCCOC)c(OCCOC)cc23)c1 [ERLOTINIB]
IC50 [1]: 12.5 nM
